Results taken from patent US7838509B2, “Methods and compositions to improve germ cell and embryo survival and function” (Bio-Origyn LLC, priority 1995, dated 2010).

System: human sperm
Test: Human sperm cultured in PCAGH or monomeric sugars: sperm motility vs control HTF (Table 3)
Format: cell-based
Conditions: for sperm motility compared to control HTF: human sperm; for sperm motility throughout a 24-hr culture period: compared to sperm cultured in arabinose and galactose or in control medium with no polysaccharides
Protocol: Sperm Motility. Sperm motility measurements may be performed by subjective visual determination using a phase contrast microscope to group sperm into total percent motile (swimming), and total percent progressively motile (swimming forward). AIso the speed of those sperm which are progressively motile is determined, i.e., fast, medium, slow.
Alternatively, CASA can be used to objectively determine the motility characteristics of individual sperm cells in a sample (Davis, Infertility & Reproductive Medicine Clinics 3:341, 1992). A 7 μl sperm sample is placed onto a slide or chamber designed for CASA, and the computer tracks individual sperm cells and determines their motility as to speed over distance. Data is then expressed as percent motile, and specific measurements are given for parameters, such as mean path velocity and track speed. The measurements of velocity and linearity correlate with future fertility in several species studied.
Samples containing sperm are incubated at 37° C. (human) or 39° C. (animal) in 5% CO2 and humidified air. At various timed intervals, sperm survival rate, motility characteristics, functional membrane health and membrane lipid peroxidation levels are determined as described in Example 2.

O=C[C@@H](O)[C@H](O)[C@H](O)CO [arabinose, reference compound]
sperm motility compared to control HTF (culture time 3 hr): = (Equivalent sperm motility compared to control HTF) | sperm motility compared to control HTF (culture time 15 hr): = (Equivalent sperm motility compared to control HTF) | sperm motility compared to control HTF (culture time 24 hr): = (Equivalent sperm motility compared to control HTF)

O=C[C@H](O)[C@@H](O)[C@@H](O)[C@H](O)C(=O)O [galacturonic acid]
sperm motility throughout a 24-hr culture period: superior sperm motility | sperm motility compared to control HTF (culture time 3 hr): + | sperm motility compared to control HTF (culture time 15 hr): + | sperm motility compared to control HTF (culture time 24 hr): +

O=C[C@H](O)[C@@H](O)[C@@H](O)[C@H](O)CO [galactose, reference compound]
sperm motility compared to control HTF (culture time 3 hr): = (Equivalent sperm motility compared to control HTF) | sperm motility compared to control HTF (culture time 15 hr): = (Equivalent sperm motility compared to control HTF) | sperm motility compared to control HTF (culture time 24 hr): = (Equivalent sperm motility compared to control HTF)

galactopyranosylarabinose
sperm motility throughout a 24-hr culture period: superior sperm motility | sperm motility compared to control HTF (culture time 3 hr): + | sperm motility compared to control HTF (culture time 15 hr): + | sperm motility compared to control HTF (culture time 24 hr): +
